This note sets out measurements from PubChem BioAssay AID602464 (Sanford-Burnham Center for Chemical Genomics, 2012).

Calls of active or inactive are those of the source. Rule as the data show it: active = IC50 below about 20 µM; inactive = the rest.

The experiment relates to Gli-responsive luciferase reporter cells, SUFU pathway antagonism. The experiment is described as follows: Gli-SUFU pathway antagonists, dose response, cell-based, luciferase luminescence, uHTS hits (AID 602464).

A word on the IC50: it is the concentration that gives 50% inhibition. In the case of `Cc1cc(C)nc(/N=C(\N)Nc2ccccc2-c2ccccc2)n1`, the IC50 was 12.8 µM. To `Cc1c(C(C)C)c(=O)n(-c2ccc(S(=O)(=O)NCc3ccccc3)cc2)n1C` belongs 3.84 µM; to `CC1Sc2n(c3ccccc3[n+]2C)N=C1c1ccccc1` (stereo not drawn), 4.71 µM; to `CCc1c(C)nc2ncnn2c1N1CCN(S(=O)(=O)c2ccc(OC)cc2)CC1`, 6.58 µM. With `CC(Sc1nc2ccccc2c(=O)n1C)C(=O)NC1CCCCC1C` (stereo not drawn), the IC50 was 11.5 µM. As for `Cc1ccc(O)c(NC(=O)COc2cc(C)ccc2C)c1`, the IC50 is 3.34 µM. With `CC(=O)Nc1ccc(S(=O)(=O)N(Cc2ccccc2)C(C)C)cc1` the figure was 8.29 µM; with `FC(F)(F)c1ccc(N2CCN(c3cc(-c4ccccc4)nc4ncnn34)CC2)nc1`, 3.6 µM. To `CC(C)CC(NC(=O)CCCNC(=O)CCC(=O)OC1O[C@H]2OC3(C)CC[C@H]4[C@H](C)CCC(C1C)C24OO3)C(=O)O` (stereo partly drawn) belongs 0.619 µM; to `CCCCNc1c(-c2ccc(OC)c(Sc3ccc(OC)cc3)c2)nc2ccccn12`, 6.31 µM; to `CC(Sc1nc2ccccc2c(=O)n1C)C(=O)N(C)C1CCCCC1` (stereo not drawn), 3.99 µM. To `CC(=O)c1cn(CCOc2ccccc2C)c2ccccc12` belongs 8.58 µM; to `CCCN1CCC(=O)N([C@H](CSc2ccc(OC)cc2)Cc2ccccc2)CC1`, 9.77 µM; to `CC1C(OC(=O)CCC(=O)NC(C)(C)CO)O[C@H]2OC3(C)CC[C@H]4[C@H](C)CCC1C24OO3` (stereo partly drawn), 0.368 µM. In the case of `N=c1c2c(n(Cc3ccc(F)cc3)c3c1CCC3)CCCC2`, the IC50 is 3.82 µM.

For `CC(C)CCOC(=O)C[N+](C)(C)CCOC1CC2CCC1(C)C2(C)C` (stereo not drawn), the IC50 was 5.18 µM. In the case of `O=C(Cn1cc(C(=O)c2ccco2)c2ccccc21)Nc1ccccc1F`, the IC50 was 4.27 µM. In the case of `CCCCOCCCNc1ncnc2c1[nH]c1ccccc12`, the IC50 was 3.17 µM.

Take `Cc1nc2cc(N3CCN(C)CC3)c(NC(=O)Cc3ccccc3)cc2c(=O)n1Cc1ccccc1`: the half-inhibitory concentration (IC50) is 12.3 µM. To `CCOc1ccc(NC(=S)NNc2ccnc3cc(Cl)ccc23)cc1` belongs 5.36 µM; to `CN(C)CCn1c2ccccc2c2nc3ccc([N+](=O)[O-])cc3cc21`, 7.54 µM. As for `CCOc1ccc(-c2nc(CSCC(=O)NCC3CCCO3)c(C)o2)cc1` (stereo not drawn), the IC50 was 1.47 µM. With `O=C(N[C@@H]1C/C=C\C[C@H](CC(=O)N(CCO)Cc2ccccc2)C(=O)N[C@@H](Cc2c[nH]c3ccccc23)COC1=O)OCC1c2ccccc2-c2ccccc21` the figure was 10.9 µM; with `CCOc1ccc2[nH]c3c(N4CCN(C(=O)c5ccco5)CC4)ncnc3c2c1`, 7.07 µM; with `CN1/C(=C\C=Nc2ccccc2)C(C)(C)c2ccccc21`, 6 µM. With `CCOC(=O)CC1CCCCN1C(=O)c1cc(COc2cccc3cnccc23)on1` (stereo not drawn) the figure was 4.47 µM. Regarding `CCC(C)[C@H]1CN=C(N)N1CCc1cccc2ccccc12` (stereo partly drawn), the concentration for half-maximal inhibition (IC50) was 6.63 µM. Regarding `Cc1ncoc1C(=O)NC1CCCc2c1cnn2-c1ccc(C(C)(C)C)cc1` (stereo not drawn), the IC50 is 7.46 µM.

On to `Clc1ccc(-n2cc(-c3ccc(Br)cc3)[n+]3c2CCCCC3)cc1`, for which the IC50 is 7.04 µM. To `CN(Cc1ccc(OCC(O)CN2CCCCC2)cc1)Cc1ccnc2ccccc12` (stereo not drawn) belongs 8.47 µM. On to `Cc1ccsc1CNc1ncnc2ccc(-c3c(C)noc3C)cc12`, for which the IC50 is 4.5 µM.

Take `CCCc1c(CC)c(=N)c2ccccc2n1C`: the IC50 was 12.9 µM. For the compound `CCNc1nc(CN2CCCCC2)nc2scc(-c3ccccc3)c12`, the 50% inhibitory concentration (IC50) was 5.95 µM. For the compound `COc1ccc(-c2c[n+](CC(=O)c3ccccc3)c3n2CCCCC3)cc1`, the IC50 is 14.1 µM. With `CCc1ccccc1NC(=S)N=Nc1c(O)n(C)c2ccc(S(=O)(=O)N3CCOCC3)cc12` the figure was 10.9 µM. To `CCCn1c2c(c(=N)c3c1CCC3)CCCC2` belongs 11 µM; to `CC[N+](C)(CC)CCC(c1ccccc1)C1CCCCC1` (stereo not drawn), 13.1 µM. With `CCCCCCn1c(=O)c(C(=O)Nc2cnccn2)c(O)c2ccccc21` the figure was 9.19 µM; with `CN1/C(=C\C=N\NC(=O)c2ccc(O)cc2)C(C)(C)c2ccccc21`, 4.34 µM. Regarding `C(#Cc1ccccc1)C[N+]1(CC#Cc2cccc3ccccc23)CCCC1`, the IC50 is 3.6 µM. Consider `COc1ccccc1N1CCN(c2ncc(C(=O)N3CCN(c4cccc(Cl)c4)CC3)c3ccccc23)CC1`, for which the concentration for half-maximal inhibition (IC50) is 6.18 µM.

With `c1ccc2c(c1)OCC(CNc1ncnc3sccc13)O2` (stereo not drawn), the IC50 was 0.887 µM.

Regarding `COc1ccc(Cn2c(-c3ccc(Cl)cc3)c[n+]3ccccc23)cc1`, the concentration for half-maximal inhibition (IC50) is 7.28 µM. To `Clc1ccc(-c2cn(-c3ccccc3)c3[n+]2CCS3)cc1` belongs 16.9 µM. With `Cc1nn(-c2ccc(NC(=O)c3ccncc3)cc2)c(C)c1Cl` the figure was 9.25 µM. To `CC(C)(C)[C@H]1COC(=O)[C@H](NC(=O)OCC2c3ccccc3-c3ccccc32)C/C=C\C[C@@H](CC(=O)N(CCO)Cc2ccccc2)C(=O)N1` belongs 11.8 µM; to `C=CCOc1nc2c(c(=O)n(C)c(=O)n2C)n1Cc1ccc(Cl)cc1Cl`, 10.3 µM; to `O=C(C[C@@H]1C/C=C\C[C@@H](NC(=O)OCC2c3ccccc3-c3ccccc32)C(=O)OC[C@@H](Cc2ccccc2)NC1=O)NCCO`, 10 µM. For the compound `CC1Cc2cc(S(=O)(=O)N3CCC(C(=O)N4CCN(c5ccccc5F)CC4)CC3)ccc2N1C(=O)C1CC1` (stereo not drawn), the half-inhibitory concentration (IC50) is 4.27 µM. With `Cc1sc2ncnc(NCC3COc4ccccc4O3)c2c1C` (stereo not drawn) the figure was 5.17 µM; with `CCCc1nc(SCC(=O)Nc2nnc(CC)s2)c2c(=O)n(C)c(=O)n(C)c2n1`, 8.48 µM; with `CC(C)(C)c1ccc(C(=O)NC(=S)Nc2ccc(N3CCOCC3)cc2)cc1`, 9.13 µM. To `COc1ccc(CN(C)C(=O)c2cccc(NC(=O)CC3SC(N4CCCCC4)=NC3=O)c2)c(OC)c1` (stereo not drawn) belongs 13 µM; to `Cc1ccc(OCCN2CCN(c3ncnc4sc(C)c(C)c34)CC2)cc1`, 2.9 µM; to `CC(=O)c1c(C)[nH]c(C(=O)OCC(=O)Nc2ccc(C)cc2[N+](=O)[O-])c1C`, 0.535 µM. With `COc1ccc(-c2nn(-c3ccccc3)cc2/C=N/NC(=O)c2ccc(Br)o2)cc1`, the IC50 is 5.42 µM. To `COc1ccc(-c2c(C#N)c(N)nc3c2CCc2ccccc2-3)cc1OC` belongs 6.7 µM; to `Cc1ccc(-c2c[n+](Cc3ccc(Cl)c(Cl)c3)c3n2CCC3)cc1`, 2.79 µM; to `O=C(NC(c1cccnc1)C(F)(F)F)c1cc(COc2ccc3c(c2)CCCC3)on1` (stereo not drawn), 10.6 µM. As to `CCCCSc1nc2sc3c(c2c(=O)n1-c1ccc(C)cc1)CCN(C)C3`, the IC50 is 17.9 µM.

In the case of `Cc1cc(C)c(C)c(S(=O)(=O)N2CCN(c3ncnc4ccccc34)CC2)c1C`, the IC50 is 4.6 µM. To `CC1=CC(C)C2(COC(c3ccc[n+](C)c3)OC2)C(C)C1` (stereo not drawn) belongs 17.9 µM; to `Cc1c(CCOC(=O)C23CC4CC(CC(C)(C4)C2)C3)sc[n+]1Cc1ccccc1`, > 20 µM (inactive); to `COc1cccc2nc3c(C(=O)NCCN(C)C)cccc3cc12`, 3.02 µM.

In the case of `CCOC(=O)N1CCN(C(=O)c2cc(COc3ccc4ncccc4c3)on2)CC1`, the half-maximal inhibitory concentration (IC50) is 6.71 µM. With `Cc1sc2ncnc(NCC(C)(C)N3CCOCC3)c2c1C` the figure was 3.85 µM. To `CC(=O)c1cccc(NS(=O)(=O)c2ccc(-c3cnc(C4CC4)o3)cc2)c1` belongs 8.16 µM; to `CC1CN(S(=O)(=O)c2ccc(C(=O)Nc3nc(-c4cc5ccccc5o4)cs3)cc2)CC(C)O1` (stereo not drawn), 1.26 µM; to `C=CCNc1nc2c(c(=O)n(C)c(=O)n2C)n1Cc1ccc(F)cc1`, 6.15 µM.

As for `COc1ccccc1C(=O)NC(=S)/C=C1/N(C)c2ccccc2C1(C)C`, the IC50 is 8.55 µM. To `Cc1cc(C)nc(SCC(=O)Nc2ccc(N3CCOCC3)c(Cl)c2)n1` belongs 3.52 µM.

Consider `CCc1nc(N)nc(N)c1-c1ccc(N(C)Cc2ccccc2)c([N+](=O)[O-])c1`, for which the IC50 is 1.57 µM.

As for `COc1cc2c(c(OC)c1OC)-c1ccc(N(C)CC(OC)OC)c(=O)cc1[C@@H](NC(C)=O)CC2`, the concentration for half-maximal inhibition (IC50) is 7.37 µM. With `O=C(NCCNc1ccnc2cc(Cl)ccc12)c1ccccc1F` the figure was 8.19 µM; with `C[C@@H]1COC(=O)[C@H](NC(=O)OCC2c3ccccc3-c3ccccc32)C/C=C\C[C@@H](CC(=O)N[C@@H](CO)Cc2ccccc2)C(=O)N1`, 7.8 µM; with `Cc1cc(Nc2ccc([N+](=O)[O-])cc2)c2ccccc2n1`, > 20 µM (inactive). To `COc1ccccc1CCNC(=O)C(=O)NCCC1CCCCN1S(=O)(=O)c1cccs1` (stereo not drawn) belongs 8.81 µM; to `C=CCn1c(O)c(N=NC(=S)Nc2cccc(C)c2)c2ccccc21`, 8.58 µM; to `CCCN(CCC)CCNC(=O)c1cc2c(=O)n(C)c3ccccc3c2n1C`, > 20 µM (inactive). In the case of `CCn1cc[n+](C)c1P(c1ccccc1)c1ccccc1`, the IC50 was 8.57 µM. For `Cc1cc(C)c(C(N)=O)c(SCC(=O)c2cc(C)n(-c3cc(C)on3)c2C)n1`, the IC50 was 4.78 µM. To `O=C(N[C@H]1C/C=C\C[C@@H](CC(=O)N(CCO)Cc2ccccc2)C(=O)N[C@H](Cc2c[nH]c3ccccc23)COC1=O)OCC1c2ccccc2-c2ccccc21` belongs 10.4 µM; to `Cc1cc(-c2ccccc2)cc(-c2ccccc2)[n+]1C`, 4.46 µM.

Take `COc1ccc(OC)c(Cc2cnc3nc(N)nc(N)c3c2C)c1`: the IC50 is 2.8 µM.

As to `O=C(Nc1cccc(C(F)(F)F)c1)C1CCN(S(=O)(=O)c2ccc(N3CCCC3=O)cc2)CC1`, the half-inhibitory concentration (IC50) was 5.45 µM. For the compound `CCOC(=O)c1ccc(NC(=O)Cn2cnc3cc(C)c(C)cc32)cc1`, the IC50 is 2.75 µM. With `Cc1nc2ccccc2n1Cc1ccc(Br)cc1` the figure was 4.73 µM; with `O=C(Nc1nc(-c2cccs2)cs1)c1cccc(S(=O)(=O)N2CCCCCC2)c1`, 2.28 µM; with `CCOC(=O)c1c(NC(=O)COc2cccc3c2CCN(C)C3=O)sc2c1CCC2`, 8.42 µM. Turning to `COc1cccc(/C=C/c2ccncc2)c1OC`, the IC50 is 8.95 µM. To `NC(=O)CC(NC(=O)c1ccccc1)c1ccc(N2CCCCCC2)c([N+](=O)[O-])c1` (stereo not drawn) belongs > 20 µM (inactive). To `COCCOc1nc2c(c(=O)n(C)c(=O)n2C)n1Cc1cccc(OC)c1` belongs 9.46 µM; to `COc1ccc(CC(=O)Nc2cccc(S(=O)(=O)N3CCCCCC3)c2)cc1OC`, 7.98 µM.
